The values below come from PubChem BioAssay AID449750 (Broad Institute, 2010).

Where “and” joins values, the source holds several entries; their conditions need not be identical. Identical values can stand only once. Calls of active or inactive are those of the source. The rule behind the calls is not given here. Some results are limits rather than exact numbers.

The nature of the test: non-covalent RecA intein splicing inhibitors, dose response, biochemical, cell-free, fluorescence, secondary screen (AID 449750).

For the compound `Cn1nc(-c2ccccn2)nc2c(=O)n(C)c(=O)nc1-2`, the AC50 was 0.176 µM.

As to `Cc1cc(C(=O)N/N=C/c2c(C)[nH]n(-c3ccccc3)c2=O)n[nH]1`, the AC50 was 3.74 µM.

Consider `COc1ccc(-c2[nH]nc3c2C(c2ccncc2)C(C#N)=C(N)O3)cc1` (stereo not drawn), for which the AC50 was 39.9 µM.

With `O=C(CCl)N(c1ccccc1)c1ccccc1`, the AC50 was 5.75 µM.

Turning to `O=C(CCCN1C(=O)/C(=C/c2ccccc2)SC1=S)Nc1ccc(O)cc1`, the AC50 was > 38 µM (inactive).

As for `c1ccc(-c2nc(N3CCCCCC3)nc(-n3ccnc3)n2)cc1`, the AC50 was > 38 µM (inactive).

For the compound `CC(C)(C)C(=O)Nc1ccc(N=Nc2ccccc2)cc1`, the AC50 was 7.69 µM.

Turning to `Cc1noc(C)c1COC(=O)Cc1ccc(Br)cc1`, the AC50 was > 38 µM (inactive).

As for `O=C(N/N=C/c1c(O)n(C2CCCCC2)c(=S)[nH]c1=O)c1ccccc1O`, the AC50 is 4.36 µM.

As for `O=[N+]([O-])c1cccc(C=Nc2cccc3ccccc23)c1O`, the AC50 is > 38 µM (inactive).

For the compound `O=C1C(Cl)=C(N2CCCCC2)C(=O)C(Cl)=C1c1cnc(N2CCCCC2)s1`, the AC50 is > 38 µM (inactive).

Turning to `CCOC(=O)c1nn(-c2ccccc2C)c(=O)c2c(N)scc12`, the AC50 was > 38 µM (inactive).

As for `Nc1scc2c(C(=O)N/N=C/c3ccc(Cl)cc3)nn(-c3ccccc3)c(=O)c12`, the AC50 was 28.1 µM.

Turning to `O=C(NCc1ccc2c(c1)OCO2)c1nc(S(=O)(=O)Cc2ccccc2)ncc1Cl`, the AC50 is > 38 µM (inactive).

Consider `C[n+]1c2ccccc2nc2ccc(NCCO)cc21`, for which the AC50 was 10.1 µM.

In the case of `CC(C)c1ccc(/C=N/NC(=O)c2nnn(-c3nonc3N)c2CSC2=NCCS2)cc1`, the AC50 was 27.6 µM.

For `Oc1c(Cl)cc(Cl)c(Cl)c1Cc1c(O)c(Cl)cc(Cl)c1Cl`, the AC50 was 6.85 µM.

For `COc1ccc(CNc2ccc3cn[nH]c3c2)c(OC)c1OC`, the concentration at half-maximal activity (AC50) was 14 µM.

`COCCOC(=O)C1=C(C)N=C2SCCC(=O)N2C1c1ccc(OC(=O)c2ccco2)cc1` (stereo not drawn): the AC50 was > 38 µM (inactive).

With `O=C(N/N=C/c1ccc(OC(=O)c2ccco2)cc1)c1ccc[n+]([O-])c1`, the AC50 is > 38 µM (inactive).

Consider `Cc1cc(-c2ccccc2)nc2cc(C(=O)N(Cc3ccccc3)Cc3ccccc3)nn12`, for which the AC50 is 18.8 µM.

Consider `C/C(CC(=O)Nc1cc(C)ccn1)=N\NC(=O)COc1cccc(C)c1`, for which the AC50 is 11.1 µM.

Regarding `COc1ccc(C=C(c2nc3ccccc3s2)c2nc3ccccc3s2)cc1O`, the AC50 was 3.04 µM.

As for `O=C(Oc1ccc(Br)cc1C(=S)N1CCOCC1)c1cccc([N+](=O)[O-])c1`, the AC50 is > 38 µM (inactive).

`O=C1C=C(N2CCCCC2)c2ccccc2C1=O`: the AC50 is 10.4 µM.

On to `Cc1ccc(C)c(Sc2ccc(NC(=O)CCl)cc2)c1`, for which the AC50 was 1.27 µM.

With `O=C(c1c[nH]c(C(=O)C(Cl)(Cl)Cl)c1)c1ccccc1Br`, the AC50 is 24.8 µM.

For the compound `CC(C)=CCC1=C(OCC(=O)O)C(=O)c2ccccc2C1=O`, the AC50 was 10.3 µM.

Regarding `COc1ccc(S(=O)(=O)/N=C2\C=C(Nc3ccc(O)cc3)C(=O)c3ccccc32)cc1`, the AC50 is 2.53 µM.

Turning to `CCOC(=O)N1CCC(c2cc(=O)n(-c3ccccc3)[nH]2)CC1`, the AC50 is 6.18 µM.

With `CCCc1ccc(/C=C2\C(=O)c3ccccc3C(O)=C2C(=O)OCC)cc1`, the AC50 was 8.63 µM.

For `Cc1cccn2c(CNCC3(c4ccccc4)CCCC3)c(C(=O)N3CCOCC3)nc12`, the AC50 was > 38 µM (inactive).

Take `COc1ccccc1NC1=C(N2CCCCC2)C(=O)c2ccccc2C1=O`: the AC50 is 8.09 µM.

For `N#CC1=C(N)Oc2n[nH]c(-c3cccs3)c2C1c1ccoc1` (stereo not drawn), the AC50 is > 38 µM (inactive).

In the case of `Cc1ccc(NC(=O)COc2cccc(/C=C3\SC(=S)N(CCC(=O)O)C3=O)c2)cc1Cl`, the AC50 was 10.2 µM.

Take `CCOC(=O)C1CCN(C(=O)c2c(C)oc3c2C(=O)c2ccccc2C3=O)CC1`: the AC50 is 21 µM.

As to `CSc1nc(-c2ccco2)nn1C(=O)c1cccs1`, the AC50 is > 38 µM (inactive).

In the case of `COc1cccc(NC(=O)c2nc(S(C)(=O)=O)ncc2Cl)c1`, the AC50 is > 38 µM (inactive).

As for `CC1=NNC(=O)C1C(c1ccccc1)C1C(=O)NN=C1C` (stereo not drawn), the AC50 was 6.67 µM.

Take `COc1ccc(NC(=S)NC(NC(=O)CCl)C(Cl)(Cl)Cl)c([N+](=O)[O-])c1` (stereo not drawn): the AC50 is 2.67 µM.

As to `COc1ccc(NC(=O)Cn2ncc(Cl)c(Cl)c2=O)cc1S(=O)(=O)N1CCOCC1`, the AC50 is > 38 µM (inactive).

For the compound `Cc1ccc(NC2=C(N3CCOCC3)C(=O)c3ccccc3C2=O)cc1`, the AC50 was 11.3 µM.

Consider `CCOC(=O)/C=c1\s/c(=C(\C#N)C(N)=O)n(-c2ccccc2)c1=O`, for which the AC50 was > 38 µM (inactive).

As for `CCOC1(OCC)C(c2ccc(Cl)cc2)C(C#N)(C#N)C1(OCC)OCC` (stereo not drawn), the AC50 was > 38 µM (inactive).

For the compound `Cc1nc(Nc2ccc(O)cc2)c2c3c(sc2n1)CCCC3`, the AC50 is > 38 µM (inactive).

Consider `Cc1noc(C)c1CSCC(=O)Oc1ccc(N(C)S(=O)(=O)c2ccccc2)cc1`, for which the AC50 is > 38 µM (inactive).

For the compound `O=C(CCl)c1ccc2c(c1)CCN2C(=O)C1CCCCC1`, the AC50 was > 38 µM (inactive).

As for `CC(OC(=O)c1cc(O)c2ccccc2c1O)C(=O)Nc1ccc(C(N)=O)cc1` (stereo not drawn), the AC50 is 10.1 µM.

`Cc1cccc(N(Cc2cc(=O)[nH]c3ccccc23)C(=O)CCl)c1`: the AC50 is 6.83 µM.

As to `COc1ccc(OCc2cc(C(=O)NC3CCOC(C)(C)C3)no2)c2ccccc12` (stereo not drawn), the AC50 was 26 µM.

For the compound `O=C1C(Cl)=C(N2CCCCC2)C(=O)N1c1ccccc1Cl`, the AC50 was > 38 µM (inactive).

Consider `Cn1c(/N=C/c2c(O)ccc3ccccc23)nc2ccccc21`, for which the AC50 is 10.6 µM.

With `CC1(C)CC(CCNC(=O)CCl)(c2ccccc2)CCO1` (stereo not drawn), the AC50 was 21.3 µM.

`Cn1c(=O)[nH]c(=O)c2c1nc([N+](=O)[O-])n2Cc1ccccc1`: the AC50 was > 38 µM (inactive).

Turning to `Cn1nc(-c2ccc(Cl)cc2)nc2c(=O)n(C)c(=O)nc1-2`, the AC50 was 0.0579 µM.

For the compound `O=C(CCl)Nc1cc(S(=O)(=O)N2CCCCCC2)ccc1Cl`, the AC50 is 4.92 µM.

`O=C(CSc1ncnc2c1nnn2Cc1ccccc1F)N1CCN(c2ccccc2)CC1`: the AC50 is > 38 µM (inactive).

Consider `CCC(C)N(CC(=O)Nc1cccc(C)c1C)C(=O)CCl` (stereo not drawn), for which the AC50 was 30.2 µM.

For the compound `CN1CCN(C2=C(Cl)C(=O)C(c3cnc(N4CCCCC4)s3)=C(Cl)C2=O)CC1`, the AC50 is 3.1 µM.

Take `Nc1ccc2nc(Cc3ccccc3)[nH]c2c1`: the AC50 was > 38 µM (inactive).

Regarding `Cc1cc(-c2[nH]nc3c2C(c2cccc(O)c2)C(C#N)=C(N)O3)c(C)s1` (stereo not drawn), the AC50 was 28.8 µM.

`COc1cc(/C=N/NC(=S)Nc2cccc(Cl)c2C)ccc1OCC(=O)N1CC(C)OC(C)C1` (stereo not drawn): the AC50 is > 38 µM (inactive).

Consider `CCc1ccc(S(=O)(=O)/N=C2\C=C(Nc3ccc(C(=O)O)cc3)C(=O)c3ccccc32)cc1`, for which the AC50 is 0.348 µM.

With `O=[N+]([O-])c1ccc(Oc2cccc(Br)c2)c2ccncc12`, the AC50 is 13.1 µM.

For the compound `O=C1/C(=C/c2cccc([N+](=O)[O-])c2)CCc2ccccc21`, the concentration at half-maximal activity (AC50) is 11.2 µM.

With `Oc1cc(O)c2c(c1)O[C@H](c1ccc(O)c(O)c1)[C@H](O)C2`, the AC50 is > 38 µM (inactive).

Turning to `COCc1[nH]nc2c1C(c1ccccc1F)C(C#N)=C(N)O2` (stereo not drawn), the AC50 was > 38 µM (inactive).

As to `Cc1sc(NC(=O)CSC2=NCCS2)nc1-c1ccccc1`, the AC50 is 26.1 µM.

In the case of `O=C(CCl)Nc1cc(-c2ccccc2)nn1-c1ccccc1`, the AC50 was 9.05 µM.

As for `CC(=O)Oc1cc2c(cc1Cl)C1(CC(c3ccccc3Cl)O2)CC(C)(C)NC(=S)N1` (stereo not drawn), the AC50 was 23.8 µM.

`CCCCN(C(=O)c1cccc2c(=O)c(C)c(-c3ccccc3)oc12)c1ccccc1`: the AC50 was 6.5 µM.

As for `COc1ccccc1N1C(=O)Cc2ccccc2C1=O`, the AC50 was > 38 µM (inactive).

In the case of `COc1ccccc1Oc1cc(C#N)c(C#N)cc1-n1nnc2ccccc21`, the AC50 was 16.5 µM.

On to `O=C1C=C(NCCN2CCOCC2)C(=O)c2cnccc21`, for which the AC50 is 1.54 µM.

In the case of `O=C(Cc1cc(=O)[nH][nH]1)N/N=C/C(Cl)=C/c1ccccc1`, the AC50 was 19.8 µM and 11.1 µM.

For `CN1C(=O)/C(=C/c2ccc(-c3ccccc3[N+](=O)[O-])o2)SC1=Nc1ccc(Cl)c(C(=O)O)c1`, the AC50 is 17.1 µM.

As for `CSc1nnc(NC(=O)c2nc(S(=O)(=O)Cc3ccc(C)cc3)ncc2Cl)s1`, the AC50 is > 38 µM (inactive).

On to `N#Cc1cc([N+](=O)[O-])ccc1NC(=O)COC(=O)CCC1CCCCC1`, for which the AC50 was 15.1 µM.

As for `O=C(CCl)N(Cc1cccc([N+](=O)[O-])c1)c1cccc(Cl)c1`, the AC50 was 2.77 µM.

On to `COc1cccc(C(c2c(C)[nH]n(-c3ccccc3)c2=O)c2c(C)[nH]n(-c3ccccc3)c2=O)c1O`, for which the AC50 was 2.35 µM.

Regarding `CC1CCCN(C2=C(Cl)C(=O)N(c3cccc(Cl)c3)C2=O)C1` (stereo not drawn), the AC50 was > 38 µM (inactive).

Regarding `CC1=NN(Cc2ccccc2)C(=O)C1C(c1ccc(Cl)cc1)C(C#N)C#N` (stereo not drawn), the AC50 is 31 µM.

Take `Cc1ccc(NC2=CC(=O)C(=O)c3ccccc32)cc1`: the AC50 was 6.16 µM.

On to `O=C(OCn1ncc(Cl)c(Cl)c1=O)c1ccc(C(F)(F)F)cc1`, for which the AC50 is 3.99 µM.

As to `CC(=O)N(C1CC(C)C(C#N)(C#N)C1(C#N)C#N)N(C)C` (stereo not drawn), the AC50 was > 38 µM (inactive).

As for `Cc1[nH]nc2c1C1(CCC3(CC1)OCCO3)C(C#N)=C(N)O2`, the AC50 is > 38 µM (inactive).

Consider `N#C/C(=C/c1ccc2c(c1)OCO2)C(=O)Nc1ccc(O)cc1`, for which the AC50 is > 38 µM (inactive).

For `Nc1ccc(Nc2ccccc2N)cc1`, the AC50 was 16 µM.

In the case of `CCCCNC1=CC(=O)C(=O)c2ccccc21`, the AC50 was 7.53 µM.

As for `Cc1[nH][nH]c(=O)c1C(c1cc(Br)ccc1O)c1c(C)[nH][nH]c1=O`, the AC50 is 8.35 µM.

With `CCCc1[nH]nc2c1C(c1ccccc1OC)C(C#N)=C(N)O2` (stereo not drawn), the AC50 is > 38 µM (inactive).

Take `COc1ccc(/C(=N/OC(C)=O)c2nccc3cc(OC)c(OC)cc23)cc1OC`: the AC50 was > 38 µM (inactive).

For the compound `CC1=NN(c2ccc(Cl)c(C(=O)O)c2)C(=O)/C1=C\c1ccc(-c2ccc(C(=O)O)cc2)o1`, the AC50 is 34.1 µM.

What is called AC50 is the concentration giving half of the maximal activity seen.
